The text below walks through data of patent US20180085345A1, “METHODS OF TRACKING SKIN CONDITIONS USING CYCLOLIGNAN COMPOUNDS” (m. Alphabet 2, L.L.C., priority 2015, published 2018).

The subject of one data set is actinic keratoses. Briefly: Randomized, blinded study of topical picropodophyllin solution in actinic keratoses: lesion count in the treatment area. Type of data set: in vivo, patients. The following applies: topical twice daily for 1 week. The method, then:
To date, 56 patients have been studied to determine the efficacy of picropodophyllin in treating actinic keratoses. The patients were randomized into four groups, and the patients in each group were treated with a solution containing either 0.5%, 1.25%, or 2.0% picropodophyllin (w/v) in propylene glycol, or a placebo constituting only the vehicle propylene glycol. The picropodophyllin solution was prepared in 100% propylene glycol solution. The solutions were prepared aseptically following GMP protocols. The affected areas of the body variously included the scalp, face, arms, and legs. Without knowing which one of the four solutions they were applying, the subjects self-applied one of the solutions to the skin. After initial application, the subjects gently massaged the solutions into their skin. This was done twice daily for 1 week. Lesions (actinic keratosis) were palpated and visualized by a trained lesion counter who is a board certified dermatologist. The same investigator evaluated each subject at each visit for consistency. The subjects were evaluated at baseline, day 3, day 7, day 14, day 28, day 56 and day 90. Within the treatment area, the number of lesions were counted, regardless of their size. The change in the number of lesions (% decline from baseline) within the treatment area was calculated and the results are shown in the table below: […]

Data set [1] concerns insulin-like growth factor-1 (IGF-1). The following applies: shown in WO 02/102804; cited from earlier work.
The conditions of data set [2]: cited from earlier work.

SMILES strings stand for the structures.

Turning to `COc1cc([C@@H]2c3cc4c(cc3[C@H](O)[C@H]3COC(=O)[C@@H]23)OCO4)cc(OC)c1OC` [PPP, picropodophyllin], the “% Decline from Baseline (number of lesions within the treatment area)” value is given as −56^AB % in the data set with actinic keratoses (0.50% w/v in propylene glycol, 28 days); −82^AB % in the data set with actinic keratoses (0.50% w/v in propylene glycol, 56 days); −90^AB % in the data set on actinic keratoses (0.50% w/v in propylene glycol, 90 days); −53^AB % with actinic keratoses (1.25% w/v in propylene glycol, 28 days); −73^AB % in the data set on actinic keratoses (1.25% w/v in propylene glycol, 56 days); −65^AB % in the data set with actinic keratoses (1.25% w/v in propylene glycol, 90 days). Besides, the “% Decline from Baseline (number of lesions within the treatment area)” value in the data set with actinic keratoses (2.00% w/v in propylene glycol, 28 days) is −17%; with actinic keratoses (2.00% w/v in propylene glycol, 56 days), −55^AB %; with actinic keratoses (2.00% w/v in propylene glycol, 90 days) it was −84^AB %. In addition, the “inhibition of insulin-like growth factor-1 (IGF-1)” value in data set [1] is on record as “potent inhibitor”. Moreover, the solubility in water result in data set [2] is given as “nearly completely insoluble”.
